How the values were obtained:
Assay in all cases: biochemical
Parameters in all cases: Invitrogen kinase panel: Z'Lyte activity (ATP at Km) or LanthaScreen competitive ATP-site binding, percent inhibition
Lck = Lck (Homo sapiens, UniProt P06239)
TAK1-TAB1 = molecular target: T1, TAK1-TAB1 (Homo sapiens, UniProt O43318)
T1 construct: gene MAP3K7
T1 sequence (O43318 1-606): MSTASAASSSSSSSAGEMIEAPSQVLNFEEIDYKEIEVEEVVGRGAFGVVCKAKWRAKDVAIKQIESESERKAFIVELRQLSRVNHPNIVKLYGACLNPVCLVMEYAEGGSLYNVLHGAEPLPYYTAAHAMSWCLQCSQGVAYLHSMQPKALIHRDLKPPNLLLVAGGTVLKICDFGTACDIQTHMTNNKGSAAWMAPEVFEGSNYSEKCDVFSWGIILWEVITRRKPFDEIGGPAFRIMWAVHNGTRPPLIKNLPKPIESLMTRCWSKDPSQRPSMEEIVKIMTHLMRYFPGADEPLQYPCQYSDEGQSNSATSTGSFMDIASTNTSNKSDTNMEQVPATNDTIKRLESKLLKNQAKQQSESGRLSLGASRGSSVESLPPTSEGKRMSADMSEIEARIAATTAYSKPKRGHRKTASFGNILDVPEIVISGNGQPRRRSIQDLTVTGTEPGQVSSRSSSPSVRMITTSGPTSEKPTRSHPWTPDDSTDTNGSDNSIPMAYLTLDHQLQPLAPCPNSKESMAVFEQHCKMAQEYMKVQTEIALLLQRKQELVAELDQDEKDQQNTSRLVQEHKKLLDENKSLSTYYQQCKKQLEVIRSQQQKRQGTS
T1 sequence (Q15750 1-504 partner): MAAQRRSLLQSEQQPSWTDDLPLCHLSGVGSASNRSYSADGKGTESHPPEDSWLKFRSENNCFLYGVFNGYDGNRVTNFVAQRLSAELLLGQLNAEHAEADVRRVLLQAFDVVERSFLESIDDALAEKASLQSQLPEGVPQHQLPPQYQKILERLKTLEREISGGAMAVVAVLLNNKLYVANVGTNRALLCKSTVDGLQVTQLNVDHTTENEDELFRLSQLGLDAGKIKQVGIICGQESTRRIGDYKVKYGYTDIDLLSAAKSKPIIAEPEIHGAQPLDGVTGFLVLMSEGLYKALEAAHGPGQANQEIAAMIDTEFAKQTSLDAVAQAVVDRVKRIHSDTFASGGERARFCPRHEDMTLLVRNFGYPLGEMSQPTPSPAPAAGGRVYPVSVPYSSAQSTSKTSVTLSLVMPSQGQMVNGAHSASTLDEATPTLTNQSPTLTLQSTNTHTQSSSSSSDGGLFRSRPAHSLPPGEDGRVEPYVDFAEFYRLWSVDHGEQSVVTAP

Fgr = Fgr (Homo sapiens, UniProt P09769)
TYK2 = TYK2 (Homo sapiens, UniProt P29597)
Syk = Syk (Homo sapiens, UniProt P43405)
p70S6K = molecular target: T2, p70S6K (Homo sapiens, UniProt P23443)
T2 construct: gene RPS6KB1

JAK1 = JAK1 (Homo sapiens, UniProt P23458)
ROCK1 = ROCK1 (Homo sapiens, UniProt Q13464)
CHK2 = molecular target: T3, CHK2 (Homo sapiens, UniProt O96017)
T3 construct: gene CHEK2

Abl = molecular target: T4, Abl (Homo sapiens, UniProt P00519)
T4 construct: gene ABL1

ERK2 = molecular target: T5, ERK2 (Homo sapiens, UniProt P28482)
T5 construct: gene MAPK1

GSK3_beta = molecular target: T6, GSK3_beta (Homo sapiens, UniProt P49841)
T6 construct: gene GSK3B

Aurora_B = molecular target: T7, Aurora_B (Homo sapiens, UniProt Q96GD4)
T7 construct: gene AURKB

PAK1 = PAK1 (Homo sapiens, UniProt Q13153)
B-Raf = molecular target: T8, B-Raf (Homo sapiens, UniProt P15056)
T8 construct: gene BRAF
T8 sequence (P15056 whole entry): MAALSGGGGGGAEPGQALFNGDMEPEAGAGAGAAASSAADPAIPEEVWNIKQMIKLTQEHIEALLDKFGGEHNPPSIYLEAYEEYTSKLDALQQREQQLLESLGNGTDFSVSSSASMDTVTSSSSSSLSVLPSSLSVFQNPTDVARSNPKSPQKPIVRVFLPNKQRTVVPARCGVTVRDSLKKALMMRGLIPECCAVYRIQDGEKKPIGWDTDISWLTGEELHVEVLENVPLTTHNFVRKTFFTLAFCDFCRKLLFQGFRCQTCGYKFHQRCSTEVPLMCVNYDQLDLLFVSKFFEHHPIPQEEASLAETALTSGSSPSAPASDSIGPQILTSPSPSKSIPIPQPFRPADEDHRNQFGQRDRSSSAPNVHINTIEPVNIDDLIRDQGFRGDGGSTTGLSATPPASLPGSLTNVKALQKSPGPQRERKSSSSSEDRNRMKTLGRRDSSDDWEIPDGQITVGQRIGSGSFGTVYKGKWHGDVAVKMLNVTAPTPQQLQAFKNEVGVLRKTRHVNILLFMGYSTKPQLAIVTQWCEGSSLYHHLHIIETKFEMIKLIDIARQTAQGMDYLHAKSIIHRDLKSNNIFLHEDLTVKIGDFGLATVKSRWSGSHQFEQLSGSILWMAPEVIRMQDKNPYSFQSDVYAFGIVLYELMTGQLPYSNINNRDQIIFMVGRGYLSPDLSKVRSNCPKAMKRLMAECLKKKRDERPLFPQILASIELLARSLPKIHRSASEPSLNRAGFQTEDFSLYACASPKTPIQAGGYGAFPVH

Sequence of Fgr (P09769 whole entry): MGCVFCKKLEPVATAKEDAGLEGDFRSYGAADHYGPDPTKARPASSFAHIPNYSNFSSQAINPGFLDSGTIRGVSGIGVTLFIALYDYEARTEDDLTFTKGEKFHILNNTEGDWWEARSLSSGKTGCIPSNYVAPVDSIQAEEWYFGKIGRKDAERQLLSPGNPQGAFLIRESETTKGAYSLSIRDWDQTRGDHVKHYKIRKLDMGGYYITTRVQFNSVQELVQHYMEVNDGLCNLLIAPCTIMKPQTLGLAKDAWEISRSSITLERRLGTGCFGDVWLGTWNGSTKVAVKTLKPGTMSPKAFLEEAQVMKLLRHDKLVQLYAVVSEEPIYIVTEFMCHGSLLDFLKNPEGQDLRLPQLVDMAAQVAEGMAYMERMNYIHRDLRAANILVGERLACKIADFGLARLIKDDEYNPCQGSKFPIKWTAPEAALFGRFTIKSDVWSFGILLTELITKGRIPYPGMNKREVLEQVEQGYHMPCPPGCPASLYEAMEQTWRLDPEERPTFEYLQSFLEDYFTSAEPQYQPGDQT
Sequence of TYK2 (P29597 whole entry): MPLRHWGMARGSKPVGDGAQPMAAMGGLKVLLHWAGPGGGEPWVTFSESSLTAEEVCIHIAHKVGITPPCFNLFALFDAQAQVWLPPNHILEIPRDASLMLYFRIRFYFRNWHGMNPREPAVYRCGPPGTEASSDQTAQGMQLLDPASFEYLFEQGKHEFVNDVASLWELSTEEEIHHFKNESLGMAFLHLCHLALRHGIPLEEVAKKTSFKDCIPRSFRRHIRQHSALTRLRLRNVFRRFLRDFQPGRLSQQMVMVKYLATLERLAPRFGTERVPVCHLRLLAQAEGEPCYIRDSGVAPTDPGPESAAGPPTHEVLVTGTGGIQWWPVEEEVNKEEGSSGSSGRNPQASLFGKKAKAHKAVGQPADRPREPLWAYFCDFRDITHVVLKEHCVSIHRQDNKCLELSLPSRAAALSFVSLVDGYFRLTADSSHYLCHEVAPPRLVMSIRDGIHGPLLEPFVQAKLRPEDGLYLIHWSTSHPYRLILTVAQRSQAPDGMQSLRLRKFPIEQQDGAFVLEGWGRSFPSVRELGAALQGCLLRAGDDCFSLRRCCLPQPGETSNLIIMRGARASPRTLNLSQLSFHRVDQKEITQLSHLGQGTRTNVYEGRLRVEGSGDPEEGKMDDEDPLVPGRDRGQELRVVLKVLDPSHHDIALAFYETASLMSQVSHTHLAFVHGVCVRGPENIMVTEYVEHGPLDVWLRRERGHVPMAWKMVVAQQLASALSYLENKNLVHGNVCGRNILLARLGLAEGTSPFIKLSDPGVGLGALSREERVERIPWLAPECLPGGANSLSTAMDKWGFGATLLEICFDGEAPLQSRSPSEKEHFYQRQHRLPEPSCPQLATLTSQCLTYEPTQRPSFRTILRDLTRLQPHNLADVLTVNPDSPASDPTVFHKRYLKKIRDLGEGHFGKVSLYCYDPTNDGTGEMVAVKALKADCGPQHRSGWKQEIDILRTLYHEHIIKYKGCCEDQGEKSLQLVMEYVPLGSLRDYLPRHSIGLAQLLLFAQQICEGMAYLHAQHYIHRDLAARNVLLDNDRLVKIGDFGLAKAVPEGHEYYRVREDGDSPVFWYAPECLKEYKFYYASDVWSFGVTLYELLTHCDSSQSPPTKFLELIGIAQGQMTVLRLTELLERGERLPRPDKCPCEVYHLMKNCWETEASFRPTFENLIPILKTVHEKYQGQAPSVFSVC
T7 sequence (Q96GD4 whole entry): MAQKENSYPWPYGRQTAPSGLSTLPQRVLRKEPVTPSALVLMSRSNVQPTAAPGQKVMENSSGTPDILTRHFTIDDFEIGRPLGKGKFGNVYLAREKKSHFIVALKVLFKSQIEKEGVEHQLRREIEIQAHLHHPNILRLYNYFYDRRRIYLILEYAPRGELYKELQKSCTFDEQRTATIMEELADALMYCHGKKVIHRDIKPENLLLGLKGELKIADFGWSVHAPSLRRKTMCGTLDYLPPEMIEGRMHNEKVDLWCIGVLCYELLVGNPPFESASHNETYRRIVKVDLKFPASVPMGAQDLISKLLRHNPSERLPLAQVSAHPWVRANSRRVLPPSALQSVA
Sequence of JAK1 (P23458 whole entry): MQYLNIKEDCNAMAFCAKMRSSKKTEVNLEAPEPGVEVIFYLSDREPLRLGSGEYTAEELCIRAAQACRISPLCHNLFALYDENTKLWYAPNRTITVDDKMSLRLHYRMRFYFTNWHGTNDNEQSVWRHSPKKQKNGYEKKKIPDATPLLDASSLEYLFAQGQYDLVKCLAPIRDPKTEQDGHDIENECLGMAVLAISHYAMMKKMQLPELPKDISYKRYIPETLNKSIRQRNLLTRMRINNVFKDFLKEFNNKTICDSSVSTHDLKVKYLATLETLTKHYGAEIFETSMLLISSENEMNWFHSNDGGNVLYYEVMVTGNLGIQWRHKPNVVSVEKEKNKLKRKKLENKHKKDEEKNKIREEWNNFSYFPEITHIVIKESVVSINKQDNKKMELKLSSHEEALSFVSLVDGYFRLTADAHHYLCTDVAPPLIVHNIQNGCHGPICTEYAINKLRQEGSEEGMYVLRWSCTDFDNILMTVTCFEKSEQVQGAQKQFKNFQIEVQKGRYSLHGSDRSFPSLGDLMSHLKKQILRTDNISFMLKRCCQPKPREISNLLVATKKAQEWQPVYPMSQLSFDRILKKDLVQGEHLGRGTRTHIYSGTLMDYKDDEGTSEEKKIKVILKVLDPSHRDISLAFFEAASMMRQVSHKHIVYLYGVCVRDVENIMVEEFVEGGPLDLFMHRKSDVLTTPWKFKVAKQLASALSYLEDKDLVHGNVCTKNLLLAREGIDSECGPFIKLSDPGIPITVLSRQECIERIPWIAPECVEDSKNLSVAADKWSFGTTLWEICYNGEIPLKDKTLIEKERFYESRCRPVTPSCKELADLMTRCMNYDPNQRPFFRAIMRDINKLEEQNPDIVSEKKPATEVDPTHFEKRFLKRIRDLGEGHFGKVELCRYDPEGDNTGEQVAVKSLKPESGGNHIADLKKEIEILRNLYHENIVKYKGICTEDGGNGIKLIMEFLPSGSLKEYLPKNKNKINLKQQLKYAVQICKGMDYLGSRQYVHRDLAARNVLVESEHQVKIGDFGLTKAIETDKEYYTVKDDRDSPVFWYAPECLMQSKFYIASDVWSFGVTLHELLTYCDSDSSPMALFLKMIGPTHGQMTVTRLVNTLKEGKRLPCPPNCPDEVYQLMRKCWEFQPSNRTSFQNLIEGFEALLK
T2 sequence (P23443 whole entry): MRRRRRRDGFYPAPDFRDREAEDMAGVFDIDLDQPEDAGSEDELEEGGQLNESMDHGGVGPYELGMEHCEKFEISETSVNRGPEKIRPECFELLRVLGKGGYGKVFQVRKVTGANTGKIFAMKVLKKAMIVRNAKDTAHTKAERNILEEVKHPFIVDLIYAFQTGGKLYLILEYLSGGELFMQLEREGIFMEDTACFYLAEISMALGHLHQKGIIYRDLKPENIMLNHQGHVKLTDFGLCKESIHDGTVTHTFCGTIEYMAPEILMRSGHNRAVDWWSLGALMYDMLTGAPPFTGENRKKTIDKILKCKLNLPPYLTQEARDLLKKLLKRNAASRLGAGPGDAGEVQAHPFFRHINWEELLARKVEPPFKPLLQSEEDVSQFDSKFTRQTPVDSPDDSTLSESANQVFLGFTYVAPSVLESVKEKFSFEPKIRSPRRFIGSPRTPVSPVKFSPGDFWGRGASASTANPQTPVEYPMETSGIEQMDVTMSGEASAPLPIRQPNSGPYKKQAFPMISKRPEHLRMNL
T6 sequence (P49841 whole entry): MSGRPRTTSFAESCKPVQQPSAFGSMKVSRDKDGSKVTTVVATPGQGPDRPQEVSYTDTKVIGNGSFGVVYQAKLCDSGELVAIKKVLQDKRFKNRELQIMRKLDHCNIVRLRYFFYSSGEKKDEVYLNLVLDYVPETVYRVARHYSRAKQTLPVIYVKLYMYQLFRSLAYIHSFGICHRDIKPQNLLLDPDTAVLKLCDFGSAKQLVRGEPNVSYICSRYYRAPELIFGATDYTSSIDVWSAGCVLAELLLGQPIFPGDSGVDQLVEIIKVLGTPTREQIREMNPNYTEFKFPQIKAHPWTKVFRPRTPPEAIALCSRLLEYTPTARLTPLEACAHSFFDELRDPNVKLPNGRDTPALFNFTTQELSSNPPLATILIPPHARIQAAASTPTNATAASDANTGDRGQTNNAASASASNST

Structure (SMILES) | inhibition at 1 µM (Lck) | inhibition at 1 µM (TAK1-TAB1) | inhibition at 1 µM (Fgr) | inhibition at 1 µM (TYK2) | inhibition at 1 µM (Syk) | inhibition at 1 µM (p70S6K) | inhibition at 1 µM (JAK1) | inhibition at 1 µM (ROCK1) | inhibition at 1 µM (CHK2) | inhibition at 1 µM (Abl) | inhibition at 1 µM (ERK2) | inhibition at 1 µM (GSK3_beta) | inhibition at 1 µM (Aurora_B) | inhibition at 1 µM (PAK1) | inhibition at 1 µM (B-Raf)
CCOC(=O)Nc1cccc2c(Oc3ncccc3-c3ccnc(N[C@H]4CCCNC4)n3)c(C)ccc12 [G-1749] | 13.5% | 23% | 1.5% | -3% | -2.5% | 2.5% | -4% | 3.5% | 12% | -7.5% | 6% | 0.5% | 2.5% | 7% | 9.5%
CC#CC(=O)Nc1cccc2c(Oc3ncccc3-c3ccnc(N[C@H]4CCCNC4)n3)c(C)ccc12 [G-7658] | -28.5% | -2.5% | 6% | -2% | -4.5% | -1% | 0.5% | 0.5% | 8% | -1.5% | 2% | 7.5% | 2% | 5% | 5.5%
O=c1cc(-c2n[nH]c3ncc(-c4c(F)cccc4F)cc23)nc(N2CCC(O)CC2)[nH]1 [G-9807] | 87.2% | 94.3% | 77.1% | 84.5% | 52% | 88.7% | 68.7% | 94.6% | 95% | 94.4% | 78.3% | 99.1% | 82.2% | 85.7% | 81.2%

From publication PMC7736581, “Activation of the IRE1 RNase through remodeling of the kinase front pocket by ATP-competitive ligands” (Nature Communications, 2020)
